# From patent US4683230A, “BMY-28121, a new antitumor antibiotic” (Bristol-Myers Company, priority 1985, dated 1987)
# Experiments:
# [1] = test system: Clostridium perfringens A22787; test: microbe, parasite or virus in culture; type: cell-based
# P388 leukemia = settings: mouse, in vivo
# [2] = Acute toxicity in mice, single intraperitoneal administration; design: species or system mice (male ddY strain); settings: mouse, in vivo, ip, male ddY mice
# anaerobic bacteria = type: cell-based
# B16 melanoma = test: Antitumor activity in mice, melanotic melanoma B16; settings: ip, once daily for 9 days, circled = significant antitumor effect
structure (smiles),measurement,setting,value
CC1(C)S[C@@H]2[C@H](NC(=O)[C@H](N)c3ccccc3)C(=O)N2[C@H]1C(=O)O [Ampicillin],MIC,[1],0.1 µg/mL
COc1cccc2c1N[C@H](O)[C@@H]1CC(/C=C/C(=O)N(C)C)=CN1C2=O [BMY-28121A],"antitumor activity against experimental tumors in mice, eg. P388 leukemia",P388 leukemia,marked antitumor activity
"COc1cccc2c1N[C@H](OC)[C@@H]1CC(/C=C/C(=O)N(C)C)=CN1C2=O [BMY-28121B, 1,10,11,11a-tetrahydro-9,11-dimethoxy-5H-pyrrolo[2,1-c][1,4]benzodiazepine-5-one-2-N,N-dimethylacrylamide]","antitumor activity against experimental tumors in mice, eg. P388 leukemia",P388 leukemia,marked antitumor activity
same,LD50,[2],0.81 mg/kg
same,solubility in ethyl acetate and ethyl ether,,slightly soluble
same,"solubility in methanol, ethanol, chloroform, pyridine, and dimethylformamide",,readily soluble
same,solubility in n-hexane,,practically insoluble
same,solubility in water,,practically insoluble
same,inhibition of anaerobic bacteria,anaerobic bacteria,inhibited all
CO[C@@]12[C@H](COC(N)=O)C3=C(C(=O)C(C)=C(N)C3=O)N1C[C@@H]1N[C@@H]12 [Mitomycin C],T/C % of MST,B16 melanoma; 0.13 mg/kg/day,124%
same,T/C % of MST,B16 melanoma; 0.25 mg/kg/day,136%
